From US20240325398A1, “COMBINATION THERAPIES” (Infinity Pharmaceuticals, Inc., priority 2014, published 2024)

What was measured:
[1] = system: WSU-NHL; test: Combination study, ATPLite 72 h, dose matrix (Synergy Score, CI50); details: combination with Compound 1, 72 h
Description: (§1) Cells are thawed from a liquid nitrogen preserved state. Once cells have been expanded and divide at their expected doubling times, screening begins. Cells are seeded in growth media in either black 1536-well or 384-well tissue culture treated plates. Cells are then equilibrated in assay plates via centrifugation and placed in incubators attached to the Dosing Modules at 37° C. for 24 hours before treatment. […] These Tzero (To) plates are read using ultra-sensitive luminescence on Envision plate readers (Perkin Elmer). Treated assay plates are incubated with compound for 72 hours. After 72 hours, plates are developed for endpoint analysis using ATPLite. All data points are collected via automated processes, quality controlled and analyzed using Zalicus software.
(§2) where T is treated cell count and V is untreated (vehicle) cell count (at 72 hours). I ranges from 0% (when T=V) to 100% (when T=0). […] The measure of effect in the experiment can be the inhibition of cellular response relative to the untreated level (vehicle alone). […] The inhibition ranges from 0% at the untreated level to 100% when T=0. Inhibition levels are negative for agents that actually increase levels. Other effect measures, such as an activity ratio r=T/V may be more appropriate for some assays. When activity ratios (e.g, fold increase over stimulated control) are being used, the effect can be measured using an induction 1=ln(T/V). With this definition, all effect expressions are the same as for inhibition.
(§3) Growth Inhibition (GI) is used as a measure of cell viability. […] A GI reading of 100% represents complete growth inhibition—T72 compound-treated and T0 vehicle signals are matched. […] A GI reading of 200% represents complete death of all cells in the culture well. Compounds reaching an activity plateau of GI 200% are considered cytotoxic. GI is calculated by applying the following test and equation:
(§4) Combination analysis data were collected in a 6×6 dose matrix. Synergy is calculated by comparing a combination's response to those of its single compound, against the drug-with-itself dose-additive reference model. Deviations from dose additivity may be assessed visually on an isobologram or numerically with a Combination Index (CI). […] Additive effect is CI=1.0. […] Antagonistic effect is CI>1.0.
(§5) To measure combination effects in excess of Loewe additivity, a scalar measure to characterize the strength of synergistic interaction termed the Synergy Score is devised. The Synergy Score is calculated as:
The fractional inhibition for each component agent and combination point in the matrix is calculated relative to the median of all vehicle-treated control wells. The Synergy Score equation integrates the experimentally-observed activity volume at each point in the matrix in excess of a model surface numerically derived from the activity of the component agents using the Loewe model for additivity. Additional terms in the Synergy Score equation (above) are used to normalize for various dilution factors used for individual agents and to allow for comparison of synergy scores across an entire experiment. The inclusion of positive inhibition gating or an Idata multiplier removes noise near the zero effect level, and biases results for synergistic interactions at that occur at high activity levels.
Loewe Volume (Loewe Vol) is used to assess the overall magnitude of the combination interaction in excess of the Loewe additivity model. Loewe Volume is particularly useful when distinguishing synergistic increases in a phenotypic activity (positive Loewe Volume) versus synergistic antagonisms (negative Loewe Volume). […] This model defines additivity as a non-synergistic combination interaction where the combination dose matrix surface should be indistinguishable from either drug crossed with itself.

[2] = system: KARPAS-422; test: as above; details: combination with Compound 1, 72 h
[3] = system: RL; test: as above; details: combination with Compound 1, 72 h
[4] = system: DOHH-2; test: as above; details: combination with Compound 1, 72 h
[5] = system: SU-DHL-10-epst; test: as above; details: combination with Compound 1, 72 h
[6] = system: DOHH2; test: Compound 1 with dexamethasone, CellTiter-Glo viability 72 h, combination index; format: cell-based; details: combination with Compound 1; DOHH2 cells; CellTiter-Glo 72 h; FIG. 11
Description: The effects of Compound 1 with dexamethasone were examined in a panel of cell lines. Cells were cultured and assayed as follows. Compound 1 was serially diluted with cell culture medium and various DMSO concentrations. The top concentration of Compound 1 exposed to cells was 3 uM for cell lines other than WSU-NHL and DOHH2. For WSU-NHL and DOHH2 cell lines, the top concentration of Compound 1 exposed to the cells was 0.3 uM. Dexamethasone was serially diluted in culture media and phosphate buffered saline (PBS). The top concentration of dexamethasone used on cells was 3 uM. Cells were at least 73% viable and were counted and diluted for plating at a density of about 92,000 cell/mL, 130 uL cells per well in 96 well plates for SUDHL6, Karpas 422, SUDHL4, WSU-NHL, RL, and DOHH2 cell lines. The SUDHL10 cell line was plated at a density of about 46,000 cells/mL, 130 uL cells per well in 96 well plates.
Various concentrations of Compound 1 and various combinations of dexamethasone were added to various wells of cells. Single agents (Compound 1 or dexamethasone alone) were also added to some wells of cells. Cells were incubated with compounds for 72 hours. To assay for effects of the compounds on cell viability, a CellTiter-Glo® luminescent cell viability assay (commercially available) was used. To each plate of cells, 100 uL CellTiter-Glo reagent was added, incubated, and luminescence quantified using a […].
The results for cell line DOHH2 are depicted in FIG. 11 and Table 11. […] Table 11 depicts combination index (CI) values for different combinations of dexamethasone/Compound 1 concentrations.

[7] = system: Farage; test: Combination study, ATPLite 72 h, dose matrix (Synergy Score, CI50); details: combination with Compound 1; Farage; 72 h
Description: as §1, §2, §3, §4
The isobologram was drawn by identifying the locus of concentrations that correspond to crossing the indicated inhibition level. This is done by finding the crossing point for each single agent concentration in a dose matrix across the concentrations of the other single agent. Practically, each vertical concentration CY is held fixed while a bisection algorithm is used to identify the horizontal concentration CX in combination with that vertical dose that gives the chosen effect level in the response surface Z(CX,CY). These concentrations are then connected by linear interpolation to generate the isobologram display. For synergistic interactions, the isobologram contour fall below the additivity threshold and approaches the origin, and an antagonistic interaction would lie above the additivity threshold. The error bars represent the uncertainty arising from the individual data points used to generate the isobologram. The uncertainty for each crossing point is estimated from the response errors using bisection to find the concentrations where Z−αZ(CX,CY) and Z+σZ(CX,CY) cross Icut, where αZ is the standard deviation of the residual error on the effect scale.
as §5
The fractional inhibition for each component agent and combination point in the matrix is calculated relative to the median of all vehicle-treated control wells.

[8] = system: OCI-Ly7; test: as above; details: combination with Compound 1, 72 h

Q: `C[C@@H]1C[C@H]2[C@@H]3CCC4=CC(=O)C=C[C@]4(C)[C@@]3(F)[C@@H](O)C[C@]2(C)[C@@]1(O)C(=O)CO` [dexamethasone, (8S,9R,10S,11S,13S,14S,16R,17R)-9-Fluoro-11,17-dihydroxy-17-(2-hydroxyacetyl)-10,13,16-trimethyl-6,7,8,9,10,11,12,13,14,15,16,17-dodecahydro-3H-cyclopenta[a]phenanthren-3-one] was tested. Which CI50 inhibition [1] did it give?
A: T (T=0.5 to <0.7)

Q: What about the “Synergy Score growth inhibition” value [1] of the same compound?
A: A3 (A3=>3)

Q: And the “Synergy Score inhibition” value [1]?
A: A3 (A3=>3)

Q: What about the CI50 growth inhibition [2] of the same compound?
A: U (U=0.7 to <1)

Q: And the CI50 inhibition [2]?
A: U (U=0.7 to <1)

Q: What about the “Synergy Score growth inhibition” value [2] of the same compound?
A: A3 (A3=>3)

Q: What about the “Synergy Score inhibition” value [2] of the same compound?
A: A3 (A3=>3)

Q: And the CI50 growth inhibition [3]?
A: S (S=0.01 to <0.5)

Q: And the CI50 inhibition [3]?
A: S (S=0.01 to <0.5)

Q: What about the “Synergy Score growth inhibition” value [3] of the same compound?
A: A3 (A3=>3)

Q: And the “Synergy Score inhibition” value [3]?
A: A3 (A3=>3)

Q: And the CI50 growth inhibition [4]?
A: S (S=0.01 to <0.5)

Q: What about the CI50 inhibition [4] of the same compound?
A: T (T=0.5 to <0.7)

Q: What about the “Synergy Score growth inhibition” value [4] of the same compound?
A: A3 (A3=>3)

Q: What about the “Synergy Score inhibition” value [4] of the same compound?
A: A3 (A3=>3)

Q: And the CI50 growth inhibition [5]?
A: S (S=0.01 to <0.5)

Q: And the CI50 inhibition [5]?
A: S (S=0.01 to <0.5)

Q: And the “Synergy Score growth inhibition” value [5]?
A: A3 (A3=>3)

Q: And the “Synergy Score inhibition” value [5]?
A: A3 (A3=>3)

Q: What about the “synergy of the combination” value [6] of the same compound?
A: synergy

Q: What about the CI50 growth inhibition [7] of the same compound?
A: U (U=0.7 to <1)

Q: And the CI50 inhibition [7]?
A: T (T=0.5 to <0.7)

Q: What about the “Synergy Score growth inhibition” value [7] of the same compound?
A: A3 (A3=>3)

Q: And the “Synergy Score inhibition” value [7]?
A: A3 (A3=>3)

Q: And the CI50 growth inhibition [8]?
A: S (S=0.01 to <0.5)

Q: And the CI50 inhibition [8]?
A: S (S=0.01 to <0.5)

Q: And the “Synergy Score growth inhibition” value [8]?
A: A3 (A3=>3)

Q: And the “Synergy Score inhibition” value [8]?
A: A3 (A3=>3)
